Measured values reported in patent publication US10912780B2, “Heterocyclic compounds useful as anti-bacterial agents and method for production thereof” (Bugworks Research, Inc., priority 2017, dated 2021).
≈ marks a conversion by molar mass, not a printed value. Where “and” joins values, the source holds several entries; their conditions need not be identical. Identical values can stand only once.

What was measured:
[1] = system: Acinetobacter baumannii ATCC 19606; assay: Minimum Inhibitory Concentration (MIC) in LB media; type: cell-based; settings: Acinetobacter baumannii, ATCC19606;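 also: twofold compound dilutions from DMSO stocks in LB broth microplates, overnight incubation at 37 °C, growth read by absorbance at 600 nm, with DMSO and sterility controls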
Experimental: Bacterial cultures that are stored as glycerol stocks at −80° C. are sub cultured on LB agar plates to obtain isolated colonies. A single colony of each strain is cultured in LB broth. […] Test compounds are dissolved in dimethyl sulfoxide (DMSO) to a stock concentration of 4 mg/ml. A twofold dilution series of this DMSO stock is prepared in a 96 well V bottom microtitre plate from rows A to H. A 3 μL volume of these dilutions are transferred to a 96-well flat bottom microtitre assay plate. Controls to monitor the effects of DMSO and media sterility are included. Each well is inoculated with 150 μL of the above diluted culture. The plates are incubated at 37° C. overnight in a humidified incubator. The following morning, the plates are read using a Spectrophotometer at 600 nm wavelength.

[2] = system: P. aeruginosa [ATCC27853]; assay: Neutropenic lung infection model in rat; type: in vivo; settings: for MEAN ± SD (Log 10 CFU/g Lung) / Mean Log 10CFU/g lung reduction (wrt 4 h PI control 5.78 Log10CFU/g lung) / Log 10 CFU/g Lung: neutropenic rat, 24 h post infection; for Log 10 CFU/g Lung: individual animals
Experimental: The purpose of this study was to evaluate the efficacy of example 15 against P. aeruginosa [ATCC27853], following single dose intravenous infusion doses of 10, 30 and 100 mg/kg in a neutropenic lung infection model in rats
Prior to the start of the infection process, all animals were divided into different groups. All grouped cages of animals were carried to a procedure room, close to a biological safety cabinet. All infections were conducted in a biological safety cabinet, with appropriate personnel protection. Animals were placed into an induction chamber and anaesthesia was induced by exposing the animals to 3-5% Isoflurane in an oxygen flow set at approximately (˜) 1 liter per minute (LPM). Once the animals were in a sufficiently deep plane of anaesthesia as monitored by pedal reflex, they were removed and infected (2). […] A gentle mixing of inoculum between two animals was followed for uniform distribution.
The IV formulation vehicle used for example 15 was 10% of L-ascorbic acid in fresh MilliQ water (w/v) with pH adjusted to ˜4.0 with 1N Sodium hydroxide solution (w/v), and the dose volume was 10 mL/kg. Meropenem was formulated in saline. […] The dose levels of the test Example 15 were 10, 30 and 100 mg/kg.
All the animals in groups were sacrificed at 24 h post infection, as specified in experimental design, by an overdose of CO2 in an appropriate exposure chamber. The group 1 animals were sacrificed at 4 hrs post infection. The euthanized animals were dipped into 70% ethanol for surface decontamination. Entire Lung was aseptically isolated, weighed and placed into 1 mL of sterile CSDB broth, and homogenized (Omni Tip (220 V hand held)). Serial ten-fold dilutions of the lungs homogenates were prepared in sterile CSD broth and 0.05 mL of four dilutions for each tissue was plated onto CSDA agar plates. Bacterial colonies were enumerated following overnight incubation at 37° C. Bacterial densities were estimated as Log10 CFU/g lung. The Mean±SD Log10 CFU/g lung was estimated in each group. Significant differences between group means and control were analyzed by one way ANOVA, followed by a Dunnett's multiple comparison test, using Graphpad Prism at 95% confidence levels.

E. coli [ATCC25922] = assay: Urinary tract infection (UTI) rat model; type: in vivo; settings: for MEAN ± SD (Log10 CFU/g kidneys) / Mean Log10 CFU/g kidney reduction (wrt 4 h PI control: 6.03 Log10 CFU/g kidneys) / MEAN ± SD (Log 10 CFU/ml Bladder) / Mean Log10 CFU/ml Bladder reduction (wrt 4 h PI control: 6.49 CFU/ml Bladder) / Log10 CFU/g (Left Kidney) / Log10 CFU/g (Right Kidney) / Log 10 CFU/ml Bladder: i.v., 1 h infusion, rat UTI, 24 h post infection; for Log10 CFU/g (Left Kidney) / Log10 CFU/g (Right Kidney) / Log 10 CFU/ml Bladder: individual animals
Experimental: The purpose of this study is to assess the efficacy of Example 15 against E. coli [ATCC25922] following single dose intravenous infusion doses of 3, 10 and 30 mg/kg in a Urinary Tract Infection Rat Model
Prior to the start of the infection process all animals were divided into different groups. All grouped cages of animals were carried to a procedure room, close to a biological safety cabinet. All infections were conducted in a biological safety cabinet, with appropriate personnel protection. Animals were anaesthetized by intraperitoneal injection of ketamine & xylazine (60+10 mg/kg i.p.) cocktail. Once the animals were in a sufficiently deep plane of anaesthesia as monitored by pedal reflex, the abdominal wall of each rat was shaved with electric clippers and the skin was cleansed with 10% povidine iodine. After a 1.5 to 2 cm lower abdominal wall incision, the abdominal wall muscles were separated with blunt dissection. […] After the replacement of the bladder to its original location, the abdominal muscles were approximated using suture and the skin was closed. The wounds were cleansed using 10% povidine iodine.
The IV formulation vehicle used was 10% of L-ascorbic acid in fresh MilliQ water (w/v) with pH adjusted to 4.0 with 1N Sodium hydroxide solution (w/v), and the dose volume was 10 mL/kg. Meropenem was prepared in MilliQ water and the pH of solution was adjusted to 4.5 using HCl. Four hours post infection, animals were dosed intravenously, as single doses (for test compounds), as a constant rate infusion, under Ketamine 60 mg/kg IP+Xylazine 10 mg/kg IP anesthesia, at a dose volume of 10 ml/kg, at the rate of 0.03 ml/min. The dose levels of the test compounds were 3, 10 and 30 mg/kg. Meropenem was administered as a single bolus dose at a dose volume of 5 ml/kg. All the animals were sacrificed at 24 h post infection, as specified in experimental design, by an overdose of CO2 in an appropriate exposure chamber. The group 1 animals were sacrificed at 4 h post infection.
The euthanized animals were dipped into 70% ethanol for surface decontamination. The organs were removed aseptically; the bladder was cut away near the urethra, and the kidneys were removed by blunt dissection to avoid bleeding. The bladder and each kidney separately were be homogenized in PBS. The CFU per milliliter homogenate of bladder, & kidney were determined after 18 to 24 h of incubation at 37° C.

[3] = system: A. baumannii clinical strains; assay: Antibacterial susceptibility studies (MIC50 and MIC90) with clinical strains, CLSI guidelines; type: cell-based

With `Cn1c(=O)ccc2ccc(F)c(CCNC[C@H]3CN(c4cnc5c(n4)NC(=O)CO5)C(=O)O3)c21` [Example 15, (S)-6-(5-(((2-(7-fluoro-1-methyl-2-oxo-1,2-dihydroquinolin-8-yl)ethyl)amino)methyl)-2-oxooxazolidin-3-yl)-2H-pyrazino[2,3-b][1,4]oxazin-3(4H)-one] the MIC [1] was 0.06 µg/mL (≈ 0.128 µM), the “MEAN ± SD (Log 10 CFU/g Lung)” value ([2]; 10 mg/kg, i.v. 1 h infusion) was 6.63 ± 0.15 Log 10 CFU/g Lung and the “Mean Log 10CFU/g lung reduction (wrt 4 h PI control 5.78 Log10CFU/g lung)” value (from here on “Mean Log 10CFU/g lung reduction”) ([2]; 10 mg/kg, i.v. 1 h infusion) was −0.85 Log10CFU/g lung. For the same compound, the “MEAN ± SD (Log 10 CFU/g Lung)” value ([2]; 30 mg/kg, i.v., 1 h infusion) was 4.74 ± 0.08 Log 10 CFU/g Lung, the “Mean Log 10CFU/g lung reduction” value ([2]; 30 mg/kg, i.v., 1 h infusion) was 1.04 Log10CFU/g lung and the “MEAN ± SD (Log 10 CFU/g Lung)” value ([2]; 100 mg/kg, i.v., 1 h infusion) was 4.76 ± 0.2 Log 10 CFU/g Lung. For the same compound, the “Mean Log 10CFU/g lung reduction” value ([2]; 100 mg/kg, i.v., 1 h infusion) was 1.02 Log10CFU/g lung, the “Log 10 CFU/g Lung” value ([2]; 10 mg/g, i.v. 1 h infusion) was 6.68 Log 10 CFU/g Lung and 6.75 Log 10 CFU/g Lung and 6.47 Log 10 CFU/g Lung and the “Log 10 CFU/g Lung” value ([2]; 30 mg/kg, i.v., 1 h infusion) was 4.79 Log 10 CFU/g Lung and 4.65 Log 10 CFU/g Lung and 4.78 Log 10 CFU/g Lung. For the same compound, the “Log 10 CFU/g Lung” value ([2]; 100 mg/kg, i.v., 1 h infusion) was 4.84 Log 10 CFU/g Lung and 4.53 Log 10 CFU/g Lung and 4.90 Log 10 CFU/g Lung, the “efficacy compared to the early infection control (in words)” value ([2]; rat lung model, 10 mg/kg) was “bacteriostatic” and the “efficacy with respect to early infection control (in words)” value ([2]; rat lung model, 30 mg/kg and 100 mg/kg) was “significant efficacy”. The “efficacy versus standard drug (in words)” value ([2]; rat lung model, similar dose (30 mg/kg)) was “comparable to standard drug meropenem”, the “MEAN ± SD (Log10 CFU/g kidneys)” value (E. coli [ATCC25922]; 3 mg/kg) was 7.13 ± 0.62 Log10 CFU/g kidneys and the “Mean Log10 CFU/g kidney reduction (wrt 4 h PI control: 6.03 Log10 CFU/g kidneys)” value (“Mean Log10 CFU/g kidney reduction” below) (E. coli [ATCC25922]; 3 mg/kg) was −1.1 Log10 CFU/g kidneys. For the same compound, the “MEAN ± SD (Log 10 CFU/ml Bladder)” value (E. coli [ATCC25922]; 3 mg/kg) was 7.01 ± 0.23 Log 10 CFU/ml, the “Mean Log10 CFU/ml Bladder reduction (wrt 4 h PI control: 6.49 CFU/ml Bladder)” value (shortened to “Mean Log10 CFU/ml Bladder reduction”) (E. coli [ATCC25922]; 3 mg/kg) was −0.52 Log10 CFU/ml and the “MEAN ± SD (Log10 CFU/g kidneys)” value (E. coli [ATCC25922]; 10 mg/kg) was 5.82 ± 0.94 Log10 CFU/g kidneys. For the same compound, the “Mean Log10 CFU/g kidney reduction” value (E. coli [ATCC25922]; 10 mg/kg) was 0.21 Log10 CFU/g kidneys, the “MEAN ± SD (Log 10 CFU/ml Bladder)” value (E. coli [ATCC25922]; 10 mg/kg) was 5.85 ± 0.27 Log 10 CFU/ml and the “Mean Log10 CFU/ml Bladder reduction” value (E. coli [ATCC25922]; 10 mg/kg) was 0.64 Log10 CFU/ml. For the same compound, the “MEAN ± SD (Log10 CFU/g kidneys)” value (E. coli [ATCC25922]; 30 mg/kg) was 4.46 ± 0.52 Log10 CFU/g kidneys, the “Mean Log10 CFU/g kidney reduction” value (E. coli [ATCC25922]; 30 mg/kg) was 1.57 Log10 CFU/g kidneys and the “MEAN ± SD (Log 10 CFU/ml Bladder)” value (E. coli [ATCC25922]; 30 mg/kg) was 4.80 ± 0.17 Log 10 CFU/ml. The “Mean Log10 CFU/ml Bladder reduction” value (E. coli [ATCC25922]; 30 mg/kg) was 1.69 Log10 CFU/ml, the “Log10 CFU/g (Left Kidney)” value (E. coli [ATCC25922]; 3 mg/kg) was 6.81 Log10 CFU/g and 6.44 Log10 CFU/g and 6.48 Log10 CFU/g and the “Log10 CFU/g (Right Kidney)” value (E. coli [ATCC25922]; 3 mg/kg) was 7.51 Log10 CFU/g and 7.68 Log10 CFU/g and 7.86 Log10 CFU/g. The “Log 10 CFU/ml Bladder” value (E. coli [ATCC25922]; 3 mg/kg) was 5.54 Log 10 CFU/ml and 6.79 Log 10 CFU/ml and 7.00 Log 10 CFU/ml, the “Log10 CFU/g (Left Kidney)” value (E. coli [ATCC25922]; 10 mg/kg) was 4.69 Log10 CFU/g and 5.68 Log10 CFU/g and 4.80 Log10 CFU/g and the “Log10 CFU/g (Right Kidney)” value (E. coli [ATCC25922]; 10 mg/kg) was 6.66 Log10 CFU/g and 6.13 Log10 CFU/g and 6.97 Log10 CFU/g. For the same compound, the “Log 10 CFU/ml Bladder” value (E. coli [ATCC25922]; 10 mg/kg) was 5.54 Log 10 CFU/ml and 5.97 Log 10 CFU/ml and 6.05 Log 10 CFU/ml, the “Log10 CFU/g (Left Kidney)” value (E. coli [ATCC25922]; 30 mg/kg) was 4.98 Log10 CFU/g and 3.84 Log10 CFU/g and 4.12 Log10 CFU/g and the “Log10 CFU/g (Right Kidney)” value (E. coli [ATCC25922]; 30 mg/kg) was 4.66 Log10 CFU/g and 4.05 Log10 CFU/g and 5.11 Log10 CFU/g. For the same compound, the “Log 10 CFU/ml Bladder” value (E. coli [ATCC25922]; 30 mg/kg) was 4.61 Log 10 CFU/ml and 4.91 Log 10 CFU/ml and 4.90 Log 10 CFU/ml, the “efficacy compared to the 4 h PI control (in words)” value (E. coli [ATCC25922]; rat UTI model, 3 mg/kg) was “bacteriostatic” and the “efficacy with respect to 4 h PI control (in words)” value (E. coli [ATCC25922]; rat UTI model, 10 and 30 mg/kg) was “significant dose dependent”. The “efficacy versus standard drug (in words)” value (E. coli [ATCC25922]; rat UTI model, similar dose (30 mg/kg)) was “comparable to standard drug meropenem”, the MIC ATCC19606 ([3]; A. baumannii reference strain ATCC19606, no unit in this line) was 0.06 µg/mL (≈ 0.128 µM) and the MIC50 ([3]; Acinetobacter baumannii) was 0.06 µg/mL (≈ 0.128 µM). For the same compound, the MIC90 ([3]; Acinetobacter baumannii) was 0.125 µg/mL (≈ 0.267 µM) and the Minimum ([3]; lowest MIC among A. baumannii clinical strains (169 strains; Example 15: 132), no unit in this line) was 0.03.
